By IC50 is commonly meant the concentration needed to halve the response being measured.

What all share (format): cell-based
Test [1] relates to HeLa (cervical) cell line. The experiment in a line: MTT cytotoxicity assay, HeLa. The settings on record: Homo sapiens, growth inhibition by 50% after 48 hr treatment. The source says: (§1) The newly synthesized compounds, 3a–d and 6a–c, combined the benefits of the aforementioned 1,3,4-oxadiazol-2(3H)-one and tetrahydropyridazine-3,6-dione moieties with their fatty acid substituent to give a new scaffold. To check the anticancer potency, the compounds 3a–d and 6a–c were screened in vitro for cytotoxicity against MDA-MB-231 (Breast), KCL-22 (Lymphoblastoid), and HeLa (cervical) cell lines, while PBMC (peripheral blood mononuclear cells) were used as a normal cell. Doxorubicin and 5-Fluorouracil were used as standard cytotoxic drugs. A period of 48 hours of drug exposure was chosen to test cytotoxicity. The MTT cell viability assay based on the conversion of the soluble yellowish MTT to the insoluble purple formazan crystal by active mitochondrial […] of living cells was used for the measurement of cell proliferation. The inhibitory concentration (IC50) of 3a–d and 6a–c compounds were screened against the MDA-MB-231, KCL-22, and HeLa cell lines as given in Table 1. The effect of standard drugs (Doxorubicin and 5-Fluorouracil) on the MDA-MB-231, KCL-22, and HeLa cell lines, and PBMC are represented in Fig. 4.
(§2) The MDA-MB-231, KCL-22, and HeLa cell lines were maintained in RPMI 1640 (Sigma Aldrich, USA) culture medium supplemented with 10% heat-inactivated fetal calf serum (Sigma Aldrich, USA), and antibiotic antimycotic solution (Sigma Aldrich, USA).
(§3) The cells were plated at a density of (5×10^4 / well) in 96-well plates and cultured for 24 hours at 37°C. The cytotoxicity of compounds was determined by the MTT assay which involves the percentage viability of a cell in response to variable doses of compounds. After incubation for 48 hours, cell proliferation was measured by adding 20 μL of MTT dye (5 mg/mL in phosphate-buffered saline) per well. The plates were incubated for 4 hours more at 37°C in a humidified chamber containing 5% CO2. Active mitochondrial dehydrogenases of living cells reduced the yellow tetrazolium salt (dye) to an insoluble purple formazan crystal. Formazan crystals formed due to the reduction of tetrazoline dye by viable cells in each well which were dissolved in 150 μL dimethyl sulfoxide, and absorbance was read at 570 nm using a plate reader (Bio-Rad). The percentage of inhibition of cell viability was determined with reference to the untreated control. To determine the IC50 value, a linear regression analysis method was used.
In general terms: Formazan colour is commonly taken as a measure of viable cells.

The subject of test [2] is MDA-MB-231 (Breast) cell line. The test can be described thus: MTT cytotoxicity assay, MDA-MB-231. To be noted: Homo sapiens, growth inhibition by 50% after 48 hr treatment.
Source text: as §1, §2, §3

Test [3] concerns KCL-22 (Lymphoblastoid) cell line. The test can be described thus: MTT cytotoxicity assay, KCL-22. To be noted: Homo sapiens, growth inhibition by 50% after 48 hr treatment.
Source text: as §1, §2, §3

Test [4] relates to PBMC (peripheral blood mononuclear cells). The test can be described thus: MTT cytotoxicity assay, normal cells PBMC. To be noted: 48 hr treatment.
Source text: as §1
Fresh blood ([…]) was provided by the Blood Bank JNMC AMU, Aligarh. After dilution with the same volume of PBS, the diluted blood sample was layered on the Ficoll-Histopaque (Sigma Aldrich, USA). The mixture was centrifuged at 400×g for 30 min at 20–22°C followed by separation of the lymphocyte layer. Then the lymphocyte layer was washed and pelleted down with three volumes of PBS twice and resuspended with RPMI-1640 media with antibiotic and antimycotic solution 10%, v/v fetal calf serum (FCS).
as §3

In the case of `C=CCCCCCCCCc1n[nH]c(=O)o1` [3a, 5-(Dec-9-en-1-yl)-1,3,4-oxadiazol-2(3H)-one], the IC50 was found to be 17.1 ± 2.1 µM in test [1], 12.3 ± 1.6 µM in test [2], 15.5 ± 1.8 µM in test [3] and 39.7 ± 1.4 µM in test [4].

With `CCCCCCCC/C=C\CCCCCCCc1n[nH]c(=O)o1` [3b, 5-[(8Z)-Heptadec-8-en-1-yl]-1,3,4-oxadiazol-2(3H)-one], the half-inhibitory concentration (IC50) is 12.3 ± 2.4 µM in test [1], 9.3 ± 1.3 µM in test [2], 13.6 ± 1.3 µM in test [3] and > 50 µM in test [4].

Consider `CCCCCC[C@@H](O)C/C=C\CCCCCCCc1n[nH]c(=O)o1` [3c, 5-[(8Z,11R)-11-Hydroxyheptadec-8-en-1-yl]-1,3,4-oxadiazol-2(3H)-one], for which the half-maximal inhibitory concentration (IC50) in test [1] stood at 9.6 ± 1.2 µM; in test [2] it was 6.3 ± 1.1 µM; in test [3], 8.3 ± 1.2 µM; in test [4], 46.3 ± 1.3 µM.

In the case of `CCCCCCCCCCCCCCCCCc1n[nH]c(=O)o1` [3d, 5-Heptadecyl-1,3,4-oxadiazol-2(3H)-one], the IC50 was found to be 26.2 ± 1.5 µM in test [1], 15.4 ± 1.8 µM in test [2], 11.8 ± 1.6 µM in test [3] and 41.4 ± 1.4 µM in test [4].

In the case of `O=c1[nH]cc(F)c(=O)[nH]1` [5-Fluorouracil, reference compound], the IC50 amounted to 2.18 ± 0.8 µM in test [1], 2.42 ± 0.09 µM in test [2], 2.52 ± 1 µM in test [3] and 11.1 ± 2.3 µM in test [4].

Regarding `C=CCCCCCCCCC(=O)N1NC(=O)CCC1=O` [6a, 1-(Undec-10-enoyl)tetrahydropyridazine-3,6-dione], the IC50 in test [1] was found to be 19.3 ± 1.4 µM; in test [2], 18.9 ± 2.2 µM; in test [3], 16.4 ± 2.1 µM; in test [4], 44.8 ± 1.3 µM.

In the case of `CCCCCCCC/C=C\CCCCCCCC(=O)N1NC(=O)CCC1=O` [6b, 1-[(9Z)-Octadec-9-enoyl]tetrahydropyridazine-3,6-dione], the IC50 in test [1] turned out to be 13.4 ± 2.4 µM; in test [2], 11.1 ± 1.8 µM; in test [3] it was 8.1 ± 1.4 µM; in test [4], 43.2 ± 1.5 µM.

Take `CCCCCCCCCCCCCCCC(=O)N1NC(=O)CCC1=O` [6c, 1-Hexadecanoyltetrahydropyridazine-3,6-dione]: the IC50 in test [1] worked out at 21.2 ± 1.6 µM; in test [2], 25.7 ± 1.4 µM; in test [3] it was 17.6 ± 2.2 µM; in test [4], 43.6 ± 1.4 µM.

For the molecule `COc1cccc2c1C(=O)c1c(O)c3c(c(O)c1C2=O)C[C@@](O)(C(=O)CO)C[C@@H]3O[C@H]1C[C@H](N)[C@H](O)[C@H](C)O1` [Doxorubicin, reference compound], the IC50 was 1.9 ± 0.09 µM in test [1], 1.6 ± 0.09 µM in test [2], 1.1 ± 0.08 µM in test [3] and 9.39 ± 1.9 µM in test [4].
